{"source": "patent US20150023920A1", "about": "“NOVEL COMPOSITIONS AND METHODS FOR PREVENTING OR TREATING CANCER METASTASIS” (Drexel University, priority 2012, published 2015)", "key": {"[1]": {"system": "IL-1β in PC3-ML cells", "assay": "IL-1β silencing by stable shRNA transduction in PC3-ML cells (Western blot, ELISA)", "format": "cell-based, human", "conditions": "stable transduction of shRNA", "description": "Mission TRC lentiviral shRNA vectors (Sigma-Aldrich) were used to knock down IL1-β. The following shRNA sequence was used:\nLentiviral particles were used to infect […] cell cultures, overnight in the presence of 8 μg/ml polybrene (Millipore). The successful infected cells were selected for the ability to proliferate in media containing G418 ([…]). The resulting cells were characterized by Western blot analysis using an antibody against IL1β.\n(§1) Cell lysates were obtained and SDS-PAGE and Western Blot analysis performed as previously described, with few modifications. Membranes were blotted with antibodies targeting PDGFRα, PDGFRβ, IL1-β (SC-7884, Santa Cruz, Dallas, Tex.), Actin (A-2066, Sigma-Aldrich, St. Louis, Mo.), COX-2 (ab15191, AbCam, Cambridge, UK) Elafin (SC-20637, Santa Cruz) and GAPDH (DI6H11, Cell Signaling Technology, Beverly, Mass.). Primary antibody binding was detected using an HRP-conjugated secondary antibody (Pierce). Chemiluminescence signals were obtained using SuperSignal West Femto reagents (Pierce) and detected with the Fluorochem 8900 imaging system and relative software (Alpha Innotech).\nThe concentrations of IL-1β and CXCL6 were measured by ELISA as described in the manufacturers' protocols. […] The supernatant was then collected and the protein concentration was measured using Quantikine kits (R&D systems)."}, "[2]": {"system": "PC3-ML bone-metastatic prostate cancer cells", "assay": "Animal model of metastasis, intracardiac inoculation of cancer cells", "format": "in vivo, mouse", "conditions": "mice inoculated via systemic arterial circulation with shRNA-transduced PC3-ML cells, four weeks post-inoculation", "description": "Five week-old male immunocompromised mice (CBI 7-SCRF) were obtained from Taconic and housed in a germ-free barrier. At six weeks of age, mice were anesthetized with 100 mg/kg ketamine and 20 mg/kg xylazine and successively inoculated in the left cardiac ventricle with cancer cells (5×10^4 in 100 μl of serum-free DMEM/F12). Cell inoculation was performed using a 30-gauge needle connected to a 1 ml syringe. The delivery of the cell suspension in the systemic blood circulation was validated by the co-injection of blue-fluorescent 10 μm polystyrene beads (Invitrogen-Molecular Probes). Animals were randomly assigned to different experimental groups and sacrificed at specified time points following inoculation. Organs were harvested and prepared as described below and tissue sections inspected blindly for metastatic lesions. The homogeneous and numerically-consistent distribution of the beads in adrenal glands and lungs collected at necropsy and inspected by fluorescence microscopy were used as discrimination criteria for the inclusion of animals in the studies. […]\nBright-field and fluorescent images of skeletal metastases were acquired using an Olympus stereomicroscope coupled to an Olympus DT70 CCD color camera. Digital images were analyzed with ImageJ software and calibrated for measurement by obtaining a pixel to millimeter ratio. […]"}, "[3]": {"system": "mouse models of acute gout", "conditions": "in vivo; cited from earlier work"}, "[4]": {"system": "COX-2 expression in human bone Mesenchymal Stem Cells (MSCs)", "assay": "COX-2 expression in human MSCs exposed to PC3-ML conditioned medium (Western blot)", "format": "cell-based", "conditions": "Anakinra 10 μg/ml pre-treatment 30 minutes; MSCs exposed 48 hours to PC3-ML conditioned medium", "description": "Bone marrow-derived Human Mesenchymal Stem cells (MSCs) (Lonza, Allendale, N.J.) were used between passage 5 and 8 and cultured in MSC growth medium (α-MEM (Invitrogen) supplemented with 10% FBS, 1 ng/ml bFGF (R&D Systems, Minneapolis, Minn.), and 0.1% gentamicin).\nas §1\nConditioned media were obtained according to Li et al., 2012, Cancer Disc. 2:840-55. In brief, 7.5×10^5 PC3-ML cells were plated in 15 ml of DMEM supplemented with 10% fetal bovine serum and 0.1% gentamicin and cultured for five days. The medium from each dish was then collected and centrifuged at 2000 rpm for 10 minutes and then used fresh as described below. […]"}, "[5]": {"system": "production of interleukin-1β", "conditions": "cited from earlier work"}, "[6]": {"system": "other members of the interleukin-1 family, including interleukin-1 alpha", "conditions": "cited from earlier work"}}, "note": "“Also recorded” adds a separate entry of the source."}
{"compound": "5′-CGGCCAGGATATAACTGACTT-3′ (listed as DNA, chemistry not given here) [shRNA, Mission TRC lentiviral shRNA used to knock down IL1-β in PC3-ML cells]", "values": [{"measurement": "IL-1β expression in PC3-ML cells after silencing", "setting": "[1]", "value": "expression levels lower than PC3-N cells"}, {"measurement": "reduction of size of bone-metastatic tumors", "setting": "[2]", "value": "approximately 70%"}]}
{"compound": "XOMA-052: potent anti-IL-1β humanized neutralizing antibody", "values": [{"measurement": "activity in mouse models of acute gout", "setting": "[3]", "value": "active"}]}
{"compound": "Anakinra: recombinant, non-glycosylated version of human IL-1 receptor antagonist prepared from genetically modified E. coli", "values": [{"measurement": "Increase in COX-2 expression in MSCs induced by PC3-ML conditioned medium", "setting": "[4]", "value": "completely prevent; also recorded: inhibited"}]}
{"compound": "CSc1ccc(-c2nn(Cc3ccccc3)c(=O)cc2-c2ccc(Cl)cc2)cc1", "note": "[K-832, 2-benzyl-5-(4-chlorophenyl)-6-[4-(methylthio)phenyl]-2H-pyridazin-3-one]", "values": [{"measurement": "inhibitory activity against production of interleukin-1β", "setting": "[5]", "value": "high inhibitory activity"}]}
{"compound": "Canakinumab: human monoclonal antibody targeted at interleukin-1 beta", "values": [{"measurement": "cross-reactivity with other members of the interleukin-1 family, including interleukin-1 alpha", "setting": "[6]", "value": "no cross-reactivity"}]}
